Source: patent US20250197399A1, “COMPOUNDS, COMPOSITIONS, AND METHODS” (Tenvie Therapeutics, Inc., priority 2022, published 2025)
Where two headings read alike, the source gives them in different places.

Test system: NLRP3
Assay: IL-1β secretion assay in PMA-differentiated, LPS/nigericin-stimulated THP-1 cells (ELISA)
Format: cell-based
Settings: 25 ng/mL LPS then nigericin, IL-1β in supernatant
Method: Compounds as provided herein were tested in the following assay. Cell culture medium employed contained RPMI 1640 medium (89%), FBS (10%), Pen/Strep (1%), and 2-mercaptoethanol (0.05 mM). Freezing medium was made up of 90% FBS and 10% DMSO. THP-1 cells were removed from the liquid nitrogen and placed into a 37° C. water bath to thaw, until signs of ice dissipated. The cells were then added to 9 mL of warm cell culture medium and centrifuged for 5 minutes at 1000 rpm. The supernatant was discarded, and the cells were resuspended in new cell culture medium. THP-1 cells were then split and cultured in the cell culture medium, being passaged every 2-3 days with the cell density will be maintained between 5×10^5 and 1.5×10^6 viable cells/mL.
PMA was dissolved in DMSO to make a stock solution at 5 mg/ml and stored in 10 μl aliquots at −20° C. for single use. PMA is added to normal growth medium. LPS was diluted with 1 mL of water solution to provide a 1 mg/mL stock solution and stored in 15 μL aliquots at −20° C. for single use. Nigericin is diluted in ice cold 100% ethanol to 5 mg/ml (6.7 mM) and stored in 75 μL aliquots at −20° C. for single use. Serum-free media contains RPMI 1640 medium (99%), Pen/Strep (1%), and 2-mercaptoethanol (0.05 mM). The two control conditions used to qualify and normalize test compound dose-response curves were as follows: High Control=25 ng/mL LPS, […], 0.5% DMSO, Low Control=25 ng/mL, LPS, 0.5% DMSO.
THP-1 cells were diluted to provide a suspension at a concentration of 1.0×10^6 cells/mL with the total volume of suspension required to enable the desired number of assay plates. The growth media was supplemented with PMA (5 ng/mL final concentration) and the cells were incubated at 37° C. under a humidified atmosphere of 5% CO2 for 40 h.
All media was carefully aspirated from each culture flask. The cells were washed carefully with 1×DPBS. The cells were then briefly digested with trypsin LE for 5 minutes at 23° C. and immediately resuspended in cell growth media. After resuspension, the cells were centrifuged at 1000 rpm for 3 minutes and the supernatant was discarded. The cells were resuspended in DPBS and once again centrifuged at 1000 rpm for 5 minutes. The supernatant was discarded and the cell pellet was resuspended in serum-free media supplemented with LPS (25 ng/mL final concentration) to enable the distribution of 30K THP-1 cells within 45 μL of media into each well of 384-well PDL-coated plates. The 384-well plates were then incubated at 37° C. under a humidified atmosphere of 5% CO2 for 2 h. Following this period, test compounds were dispensed by Tecan across the desired concentration range with all wells normalized to a final 0.5% DMSO concentration. The plates were then then incubated at 37° C. under a humidified atmosphere of 5% CO2 for 1 h. Following this period, 5 μL of the 5 mg/mL nigericin stock solution was added to each of the appropriate wells and plates were centrifuged at 1000 rpm for 30 seconds. The plates were the immediately reintroduced to the incubator at 37° C. under a humidified atmosphere of 5% CO2 for 2 h. After this time, 35 μL/well of supernatant was collected and transferred into v-bottom plate and centrifuged at 1000 rpm for 1 minute. These supernatant aliquots were analyzed using an IL-Iβ detection kit as described below. If needed, the test samples could be snap frozen and stored at −80° C. until analyzed.
To prepare each ELISA plate, capture antibody (mAb Mt175) was diluted with PBS to a final concentration of […] and then 20 μL of this solution was added to each well of the ELISA plate. Each plate was allowed to incubate overnight at 4° C. The next day, the capture antibody solution was removed and discarded. Each ELISA plate was washed 4 times with PBST followed by the addition of 25 µL/well of blocking buffer (Licor-927-40010) supplemented with 0.1% Tween 20. Each ELISA plate was then allowed to incubate for 1 hour at 23° C. […]

[1] = THP-1 cells, read-out: Activity
[2] = THP-1 cells, read-out: Activity (IC50 class)
[3] = Homo sapiens, THP-1, THP-1 cells, read-out: Activity (IC50 class)
[4] = Homo sapiens, THP-1, THP-1 cells, read-out: Activity

O=C(CN1CC2(CC2(F)F)c2cc(C3CC3)ccc2C1=O)Nc1ncc(F)cn1 (single isomer, unassigned) [Example 29, N-(5-fluoropyrimidin-2-yl)-2-[6-cyclopropyl-1′,1′-difluoro-1-oxospiro[3H-isoquinoline-4,2′-cyclopropane]-2-yl]acetamide]
IC50 [1]: 86 nM | IC50 [2]: < 1000 nM

O=C(CN1CC2(CC2(F)F)c2c(ccc(Br)c2F)C1=O)Nc1nc2ccccn2n1 (single isomer, unassigned) [Example 30, N-([1,2,4]triazolo[1,5-a]pyridin-2-yl)-2-[6-bromo-1′,1′,5-trifluoro-1-oxospiro[3H-isoquinoline-4,2′-cyclopropane]-2-yl]acetamide]
IC50 [1]: 29200 nM | IC50 [2]: > 10000 nM

O=C(CN1CC2(CC2(F)F)c2c(ccc(Br)c2F)C1=O)Nc1nc2ccccn2n1 (single isomer, unassigned) [Example 31, N-([1,2,4]triazolo[1,5-a]pyridin-2-yl)-2-[6-bromo-1′,1′,5-trifluoro-1-oxospiro[3H-isoquinoline-4,2′-cyclopropane]-2-yl]acetamide]
IC50 [1]: 33 nM | IC50 [2]: < 1000 nM

Cc1cnc(NC(=O)CN2CC3(CC3(F)F)c3c(ccc(Br)c3F)C2=O)nc1 (single isomer, unassigned) [Example 32, N-(5-methylpyrimidin-2-yl)-2-[6-bromo-1′,1′,5-trifluoro-1-oxospiro[3H-isoquinoline-4,2′-cyclopropane]-2-yl]acetamide]
IC50 [1]: 28600 nM | IC50 [2]: > 10000 nM

Cc1cnc(NC(=O)CN2CC3(CC3(F)F)c3c(ccc(Br)c3F)C2=O)nc1 (single isomer, unassigned) [Example 33, N-(5-methylpyrimidin-2-yl)-2-[6-bromo-1′,1′,5-trifluoro-1-oxospiro[3H-isoquinoline-4,2′-cyclopropane]-2-yl]acetamide]
IC50 [1]: 55 nM | IC50 [2]: < 1000 nM

O=C(CN1CC2(CC2(F)F)c2c(ccc(C3CC3)c2F)C1=O)Nc1ncc(Cl)cn1 (single isomer, unassigned) [Example 34, N-(5-chloropyrimidin-2-yl)-2-[6-cyclopropyl-1′,1′,5-trifluoro-1-oxospiro[3H-isoquinoline-4,2′-cyclopropane]-2-yl]acetamide]
IC50 [3]: 1000 to 10000 nM | IC50 [1]: 15600 nM

O=C(CN1CC2(CC2(F)F)c2c(ccc(C3CC3)c2F)C1=O)Nc1ncc(Cl)cn1 (single isomer, unassigned) [Example 35, N-(5-chloropyrimidin-2-yl)-2-[6-cyclopropyl-1′,1′,5-trifluoro-1-oxospiro[3H-isoquinoline-4,2′-cyclopropane]-2-yl]acetamide]
IC50 [1]: 16 nM | IC50 [2]: < 1000 nM

Cc1cnc(NC(=O)CN2CC3(CC3(F)F)c3c(ccc(C4CC4)c3F)C2=O)nc1 (single isomer, unassigned) [Example 36, N-(5-methylpyrimidin-2-yl)-2-[6-cyclopropyl-1′,1′,5-trifluoro-1-oxospiro[3H-isoquinoline-4,2′-cyclopropane]-2-yl]acetamide]
IC50 [1]: 22400 nM | IC50 [2]: > 10000 nM

Cc1cnc(NC(=O)CN2CC3(CC3(F)F)c3c(ccc(C4CC4)c3F)C2=O)nc1 (single isomer, unassigned) [Example 37, N-(5-methylpyrimidin-2-yl)-2-[6-cyclopropyl-1′,1′,5-trifluoro-1-oxospiro[3H-isoquinoline-4,2′-cyclopropane]-2-yl]acetamide]
IC50 [1]: 78 nM | IC50 [2]: < 1000 nM

O=C(CN1CC2(CC2(F)F)c2cc(C(F)(F)F)ccc2C1=O)Nc1ncc(Cl)cn1 (single isomer, unassigned) [Example 38, N-(5-chloropyrimidin-2-yl)-2-[1′,1′-difluoro-6-(trifluoromethyl)-1-oxospiro[3H-isoquinoline-4,2′-cyclopropane]-2-yl]acetamide]
IC50 [3]: < 1000 nM | IC50 [1]: 126 nM

O=C(CN1CC2(CC2(F)F)c2cc(C(F)(F)F)ccc2C1=O)Nc1ncc(Cl)cn1 (single isomer, unassigned) [Example 39, N-(5-chloropyrimidin-2-yl)-2-[1′,1′-difluoro-6-(trifluoromethyl)-1-oxospiro[3H-isoquinoline-4,2′-cyclopropane]-2-yl]acetamide]
IC50 [1]: 6960 nM | IC50 [2]: 1000 to 10000 nM

O=C(CN1CC2(CC2(F)F)c2cc(C(F)(F)F)ccc2C1=O)Nc1ncc(F)cn1 (single isomer, unassigned) [Example 40, N-(5-fluoropyrimidin-2-yl)-2-[1′,1′-difluoro-6-(trifluoromethyl)-1-oxospiro[3H-isoquinoline-4,2′-cyclopropane]-2-yl]acetamide]
IC50 [3]: 1000 to 10000 nM | IC50 [1]: 9370 nM

O=C(CN1CC2(CC2(F)F)c2cc(C(F)(F)F)ccc2C1=O)Nc1ncc(F)cn1 (single isomer, unassigned) [Example 41, N-(5-fluoropyrimidin-2-yl)-2-[1′,1′-difluoro-6-(trifluoromethyl)-1-oxospiro[3H-isoquinoline-4,2′-cyclopropane]-2-yl]acetamide]
IC50 [1]: 67 nM | IC50 [2]: < 1000 nM

O=C(CN1C[C@]2(C[C@H]2F)c2c(ccc(Cl)c2F)C1=O)Nc1ncc(Cl)cn1 (single isomer, unassigned) [Example 43, 2-[(2′s,4r)-6-chloro-2′,5-difluoro-1-oxospiro[3H-isoquinoline-4,1′-cyclopropane]-2-yl]-N-(5-chloropyrimidin-2-yl)acetamide]
IC50 [4]: 51 nM | IC50 [3]: < 1000 nM

Cc1cnc(NC(=O)CN2C[C@]3(C[C@H]3F)c3c(ccc(Cl)c3F)C2=O)nc1 (single isomer, unassigned) [Example 44, 2-[(2′s,4r)-6-chloro-2′,5-difluoro-1-oxospiro[3H-isoquinoline-4,1′-cyclopropane]-2-yl]-N-(5-methylpyrimidin-2-yl)acetamide]
IC50 [4]: 113 nM | IC50 [3]: < 1000 nM

O=C(CN1C[C@]2(C[C@H]2F)c2c(ccc(Cl)c2F)C1=O)Nc1ncc2cn[nH]c2n1 (single isomer, unassigned) [Example 45, 2-[(2′s,4r)-6-chloro-2′,5-difluoro-1-oxospiro[3H-isoquinoline-4,1′-cyclopropane]-2-yl]-N-(1H-pyrazolo[3,4-d]pyrimidin-6-yl)acetamide]
IC50 [4]: 48 nM | IC50 [3]: < 1000 nM

O=C(CN1C[C@]2(C[C@H]2F)c2cc(C(F)(F)F)ccc2C1=O)Nc1ncc2cn[nH]c2n1 (single isomer, unassigned) [Example 47, 2-[(2′s,4r)-2′-fluoro-1-oxo-6-(trifluoromethyl)spiro[3H-isoquinoline-4,1′-cyclopropane]-2-yl]-N-(1H-pyrazolo[3,4-d]pyrimidin-6-yl)acetamide]
IC50 [3]: < 1000 nM | IC50 [1]: 231 nM

O=C(CN1C[C@]2(C[C@H]2F)c2cc(C(F)(F)F)ccc2C1=O)Nc1ncc2cn[nH]c2n1 (single isomer, unassigned) [Example 48, 2-[(2′s,4r)-2′-fluoro-1-oxo-6-(trifluoromethyl)spiro[3H-isoquinoline-4,1′-cyclopropane]-2-yl]-N-(1H-pyrazolo[3,4-d]pyrimidin-6-yl)acetamide]
IC50 [1]: 24 nM | IC50 [2]: < 1000 nM
